Structures are written as SMILES. Counter-ions that a name gives are not always drawn.

This assay deals with T1, SHP2 (Homo sapiens, UniProt Q06124).
T1 sequence (Q06124 1-593): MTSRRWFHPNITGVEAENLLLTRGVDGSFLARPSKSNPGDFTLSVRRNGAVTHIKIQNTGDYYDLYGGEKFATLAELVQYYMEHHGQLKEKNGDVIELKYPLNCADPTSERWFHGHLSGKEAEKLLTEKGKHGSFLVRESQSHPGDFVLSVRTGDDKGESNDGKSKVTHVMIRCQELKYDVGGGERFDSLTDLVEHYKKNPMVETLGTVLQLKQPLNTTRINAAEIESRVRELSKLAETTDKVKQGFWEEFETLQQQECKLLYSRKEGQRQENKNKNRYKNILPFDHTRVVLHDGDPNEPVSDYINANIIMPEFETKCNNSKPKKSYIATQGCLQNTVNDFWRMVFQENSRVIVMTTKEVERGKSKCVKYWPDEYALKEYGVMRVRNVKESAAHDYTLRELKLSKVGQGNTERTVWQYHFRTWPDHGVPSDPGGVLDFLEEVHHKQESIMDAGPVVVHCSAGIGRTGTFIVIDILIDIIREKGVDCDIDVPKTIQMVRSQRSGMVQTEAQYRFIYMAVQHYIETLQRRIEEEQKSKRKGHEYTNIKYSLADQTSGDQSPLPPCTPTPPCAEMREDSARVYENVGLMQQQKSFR
The experiment in a line: SHP2 allosteric inhibition assay (DiFMUP prompt fluorescence). It is filed as biochemical. Conditions: 0.25 nM SHP2 activated with 0.5 μM peptide IRS1_pY1172(dPEG8)pY1222; substrate DiFMUP 100 μM.
The term IC50 denotes the concentration needed to halve the response being measured. A low value points to greater potency in that assay. For the compound `Cc1nc(N2CCC3(CC2)Cc2ccccc2[C@@H]3N)c(CO)nc1-c1cccc(Cl)c1Cl` (single isomer, unassigned) [Example 19], the concentration for half-maximal inhibition (IC50) is 50 to 1000 nM.
For `N[C@H]1c2ccccc2CC12CCN(c1cnc3c(-c4ccnc(Cl)c4F)n[nH]c3n1)CC2` (single isomer, unassigned) [Example 66] the value was 50 to 1000 nM; for `N#Cc1cccc2c1CC1(CCN(c3cnc4c(N5CCCc6ncccc65)n[nH]c4n3)CC1)[C@H]2N` (single isomer, unassigned) [Example 116], 1000 to 10000 nM.
For the compound `N[C@@H]1c2ccccc2C[C@]12CC[C@@H](c1cnc3c(N4CCCc5ncccc54)n[nH]c3n1)CC2` (single isomer, unassigned) [Example 191, (1r, 3′S, 4S)-4-[3-(1,2,3,4-tetrahydro-1,5-naphthyridin-1-yl)-1H-pyrazolo[3,4-b]pyrazin-6-yl]-1′,3′-dihydrospiro[cyclohexane-1,2′-inden]-3′-amine], the concentration for half-maximal inhibition (IC50) fell in the range of 1000 to 10000 nM.
`C[C@H](O)c1nc(Sc2ccnc(Cl)c2Cl)cnc1N1CCC2(CC1)Cc1ccccc1[C@H]2N` (single isomer, unassigned) [Example 260] gave an IC50 above 10000 nM.
Next, `N[C@@H]1c2ccccc2C[C@]12CC[C@H](c1cnc(Sc3ccnc(Cl)c3Cl)cn1)CC2` (single isomer, unassigned) [Example 275, (1s, 3′S, 4R)-4-{5-[(2,3-dichloropyridin-4-yl)sulfanyl]pyrazin-2-yl}-1′,3′-dihydrospiro[cyclohexane-1,2′-inden]-3′-amine]: 1000 to 10000 nM; `NC1c2ccccc2CC12CCC(c1cnc(SCC3CC3)cn1)CC2` (single isomer, unassigned) [Example 284, (1s, 1′R, 4S)-4-(5-((cyclopropylmethyl)thio)pyrazin-2-yl)-1′,3′-dihydrospiro[cyclohexane-1,2′-inden]-1′-amine]: 50 to 1000 nM; `C[C@H](C(=O)N1CCC2(CC1)Cc1ccccc1[C@H]2N)c1ccc(F)cc1` (single isomer, unassigned) [Example 290]: below 50 nM.
In the case of `Nc1nccc(Sc2ncc(N3CCC4(CC3)Cc3ccccc3[C@H]4N)cn2)c1Cl` [Example 63], the IC50 fell in the range of 50 to 1000 nM.
`Cn1cnc2c(N3CCC4(CC3)Cc3ccccc3[C@H]4N)nccc21` [Example 184] registered an IC50 of 50 to 1000 nM.
On to `N[C@@H]1c2ccccc2C[C@@]12C[C@H]1CC[C@@H](C2)N1c1cnc2c(N3CCCc4ncccc43)n[nH]c2n1` [Example 227], for which the IC50 is above 10000 nM.
Compound `Nc1nccc(Sc2cnc(N3[C@@H]4CC[C@H]3C[C@]3(Cc5ccccc5[C@H]3N)C4)cn2)c1Cl` [Example 231] registered an IC50 above 10000 nM.
Compound `Nc1nccc(Sc2cnc(N3[C@@H]4CC[C@H]3C[C@]3(C4)Oc4ccccc4[C@H]3N)cn2)c1Cl` [Example 232] showed an IC50 below 50 nM.
For `CC(C)Sc1cnc(N2CCC3(CC2)Cc2ccccc2[C@H]3N)cn1` [Example 248, (3S)-1′-[5-(propan-2-ylsulfanyl)pyrazin-2-yl]-1,3-dihydrospiro[indene-2,4′-piperidin]-3-amine] the value was below 50 nM; for `N[C@@H]1c2ccccc2CC12CCN(c1ccc(SCC3CC3)nc1)CC2` [Example 272, (S)-1′-(6-((cyclopropylmethyl)thio)pyridin-3-yl)-1,3-dihydrospiro[indene-2,4′-piperidin]-1-amine formate], below 50 nM; for `Cc1cnc2sc(N3CCC4(CC3)Cc3ccccc3[C@H]4N)nn12` [Example 293, (S)-1′-(5-methylimidazo[2,1-b][1,3,4]thiadiazol-2-yl)-1,3-dihydrospiro[indene-2,4′-piperidin]-1-amine], below 50 nM.

For the origin of these results see patent publication US12331056B2, “SHP2 phosphatase inhibitors and methods of use thereof” (Relay Therapeutics, Inc., priority 2018, dated 2025).
